According to the kinase profiling compilation of Christmann-Franck et al. (2016):

Tests used:
Test in all cases: KINOMEscan competition binding
Conditions in all cases: compound 10.0 µM
RPS6KA2 KD1 (human) = RPS6KA2 KD1 (human) (UniProt Q15349)
CAMK2A (human) = CAMK2A (human) (UniProt Q9UQM7)
MAPK4 (human) = MAPK4 (human) (UniProt P31152)
MAP3K11 (human) = MAP3K11 (human) (UniProt Q16584)
MAP2K2 (human) = MAP2K2 (human) (UniProt P36507)
PLK1 (human) = PLK1 (human) (UniProt P53350)
STK11 (human) = STK11 (human) (UniProt Q15831)
Chain of STK11 (human) (Q15831 whole entry, looked up): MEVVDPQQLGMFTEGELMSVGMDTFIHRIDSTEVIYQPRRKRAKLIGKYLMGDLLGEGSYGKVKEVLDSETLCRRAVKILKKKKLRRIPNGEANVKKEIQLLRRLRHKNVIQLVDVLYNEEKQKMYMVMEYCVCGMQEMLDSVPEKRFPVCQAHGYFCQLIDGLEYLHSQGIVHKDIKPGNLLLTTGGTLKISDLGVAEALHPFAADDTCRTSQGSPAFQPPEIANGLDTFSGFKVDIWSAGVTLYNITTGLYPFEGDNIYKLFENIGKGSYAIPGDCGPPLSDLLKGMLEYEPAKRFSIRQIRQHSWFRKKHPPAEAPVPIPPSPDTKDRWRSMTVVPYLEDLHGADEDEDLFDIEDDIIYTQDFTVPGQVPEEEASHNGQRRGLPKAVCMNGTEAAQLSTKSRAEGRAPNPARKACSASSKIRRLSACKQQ

MAPKAPK2 (human) = MAPKAPK2 (human) (UniProt P49137)
Chain of MAPKAPK2 (human) (P49137 whole entry, looked up): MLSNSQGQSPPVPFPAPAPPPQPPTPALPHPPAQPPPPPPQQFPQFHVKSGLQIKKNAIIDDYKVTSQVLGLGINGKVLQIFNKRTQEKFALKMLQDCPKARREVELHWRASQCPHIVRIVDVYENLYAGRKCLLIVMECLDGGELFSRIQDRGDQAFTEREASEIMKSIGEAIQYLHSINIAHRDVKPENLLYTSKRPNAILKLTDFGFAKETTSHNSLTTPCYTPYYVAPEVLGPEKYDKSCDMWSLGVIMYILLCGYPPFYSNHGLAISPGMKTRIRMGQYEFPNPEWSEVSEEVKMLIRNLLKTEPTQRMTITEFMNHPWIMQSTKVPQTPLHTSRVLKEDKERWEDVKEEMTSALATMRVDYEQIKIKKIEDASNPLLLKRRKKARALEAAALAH

PRKD2 (human) = PRKD2 (human) (UniProt Q9BZL6)
Chain of PRKD2 (human) (Q9BZL6 whole entry, looked up): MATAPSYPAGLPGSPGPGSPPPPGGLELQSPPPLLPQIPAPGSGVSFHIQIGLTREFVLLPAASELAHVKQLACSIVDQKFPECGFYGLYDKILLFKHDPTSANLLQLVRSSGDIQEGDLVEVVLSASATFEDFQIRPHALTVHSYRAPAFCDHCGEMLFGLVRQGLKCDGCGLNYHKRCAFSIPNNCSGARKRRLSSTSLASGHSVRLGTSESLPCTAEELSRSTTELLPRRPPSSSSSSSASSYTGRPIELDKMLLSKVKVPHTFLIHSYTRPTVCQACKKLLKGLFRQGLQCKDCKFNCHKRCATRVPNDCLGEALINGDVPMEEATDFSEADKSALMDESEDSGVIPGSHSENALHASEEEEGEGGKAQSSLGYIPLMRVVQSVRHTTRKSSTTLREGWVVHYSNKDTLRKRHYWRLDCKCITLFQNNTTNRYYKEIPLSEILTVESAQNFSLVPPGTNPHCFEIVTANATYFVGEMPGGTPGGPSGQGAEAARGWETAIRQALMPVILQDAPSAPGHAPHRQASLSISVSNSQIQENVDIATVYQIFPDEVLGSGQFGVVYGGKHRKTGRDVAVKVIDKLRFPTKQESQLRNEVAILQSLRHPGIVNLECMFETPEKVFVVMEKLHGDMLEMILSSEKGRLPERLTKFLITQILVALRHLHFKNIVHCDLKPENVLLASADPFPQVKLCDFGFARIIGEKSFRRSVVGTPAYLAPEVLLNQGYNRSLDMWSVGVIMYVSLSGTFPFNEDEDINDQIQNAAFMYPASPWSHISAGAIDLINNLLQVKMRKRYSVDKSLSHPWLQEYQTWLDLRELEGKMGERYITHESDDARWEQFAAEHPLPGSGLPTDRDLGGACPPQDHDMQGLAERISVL

CSNK1G1 (human) = CSNK1G1 (human) (UniProt Q9HCP0)
DCLK2 (human) = DCLK2 (human) (UniProt Q8N568)
MKNK1 (human) = MKNK1 (human) (UniProt Q9BUB5)
FYN (human) = FYN (human) (UniProt P06241)
CHUK (human) = CHUK (human) (UniProt O15111)
TNK2 (human) = TNK2 (human) (UniProt Q07912)
STK17A (human) = STK17A (human) (UniProt Q9UEE5)
MAP3K10 (human) = MAP3K10 (human) (UniProt Q02779)
Chain of MAP3K10 (human) (Q02779 whole entry, looked up): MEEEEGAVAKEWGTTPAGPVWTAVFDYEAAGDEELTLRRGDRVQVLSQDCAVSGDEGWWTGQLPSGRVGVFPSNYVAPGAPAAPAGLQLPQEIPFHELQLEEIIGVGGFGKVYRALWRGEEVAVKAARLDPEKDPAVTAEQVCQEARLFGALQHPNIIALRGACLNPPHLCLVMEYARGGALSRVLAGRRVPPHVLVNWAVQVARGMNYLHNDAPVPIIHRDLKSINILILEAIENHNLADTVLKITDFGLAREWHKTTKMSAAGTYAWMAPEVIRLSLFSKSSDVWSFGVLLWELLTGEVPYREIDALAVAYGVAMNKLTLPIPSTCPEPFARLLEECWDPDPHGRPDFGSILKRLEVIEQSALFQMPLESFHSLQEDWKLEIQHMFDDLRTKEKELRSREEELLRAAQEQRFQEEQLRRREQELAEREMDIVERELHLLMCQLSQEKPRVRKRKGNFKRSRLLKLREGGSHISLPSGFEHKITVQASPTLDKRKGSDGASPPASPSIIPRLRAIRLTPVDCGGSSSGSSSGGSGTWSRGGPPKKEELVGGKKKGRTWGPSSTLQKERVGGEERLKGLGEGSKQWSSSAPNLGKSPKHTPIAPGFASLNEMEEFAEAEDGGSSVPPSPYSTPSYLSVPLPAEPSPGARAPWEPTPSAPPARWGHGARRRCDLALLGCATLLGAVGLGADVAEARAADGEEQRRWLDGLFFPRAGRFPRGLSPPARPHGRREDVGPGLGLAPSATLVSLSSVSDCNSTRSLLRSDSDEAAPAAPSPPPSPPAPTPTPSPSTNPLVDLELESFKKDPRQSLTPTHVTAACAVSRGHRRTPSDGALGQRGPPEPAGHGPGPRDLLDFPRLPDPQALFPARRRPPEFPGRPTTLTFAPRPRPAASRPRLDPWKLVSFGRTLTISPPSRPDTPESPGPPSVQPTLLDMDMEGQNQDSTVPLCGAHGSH

MYLK2 (human) = MYLK2 (human) (UniProt Q9H1R3)
RPS6KA1 KD2 (human) = RPS6KA1 KD2 (human) (UniProt Q15418)
[1] = biological target: TYK2 JH1 catalytic (human) (UniProt P29597)
CDC42BPG (human) = CDC42BPG (human) (UniProt Q6DT37)
PRKACA (human) = PRKACA (human) (UniProt P17612)
CDK18 (human) = CDK18 (human) (UniProt Q07002)
NTRK2 (human) = NTRK2 (human) (UniProt Q16620)
WEE1 (human) = WEE1 (human) (UniProt P30291)
CDK7 (human) = CDK7 (human) (UniProt P50613)
STK33 (human) = STK33 (human) (UniProt Q9BYT3)
ACVRL1 (human) = ACVRL1 (human) (UniProt P37023)
Chain of ACVRL1 (human) (P37023 whole entry, looked up): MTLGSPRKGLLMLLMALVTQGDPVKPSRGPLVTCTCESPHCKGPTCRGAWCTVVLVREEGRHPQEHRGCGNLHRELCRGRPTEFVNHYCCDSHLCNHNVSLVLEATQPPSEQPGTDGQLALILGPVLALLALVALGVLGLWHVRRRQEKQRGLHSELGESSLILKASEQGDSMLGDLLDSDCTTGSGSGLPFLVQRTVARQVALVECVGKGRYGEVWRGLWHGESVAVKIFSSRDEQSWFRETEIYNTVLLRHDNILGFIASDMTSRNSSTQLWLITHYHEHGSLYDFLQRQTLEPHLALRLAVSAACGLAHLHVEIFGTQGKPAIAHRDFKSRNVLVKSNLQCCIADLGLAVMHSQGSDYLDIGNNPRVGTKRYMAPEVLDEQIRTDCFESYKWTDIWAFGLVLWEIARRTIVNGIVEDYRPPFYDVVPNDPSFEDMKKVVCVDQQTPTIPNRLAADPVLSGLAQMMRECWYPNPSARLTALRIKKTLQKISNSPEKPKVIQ

SGK110 (human) = SGK110 (human) (UniProt P0C264)
TAOK3 (human) = TAOK3 (human) (UniProt Q9H2K8)
IKBKB (human) = IKBKB (human) (UniProt O14920)
TTK (human) = TTK (human) (UniProt P33981)
RIOK3 (human) = RIOK3 (human) (UniProt O14730)
Chain of RIOK3 (human) (O14730 whole entry, looked up): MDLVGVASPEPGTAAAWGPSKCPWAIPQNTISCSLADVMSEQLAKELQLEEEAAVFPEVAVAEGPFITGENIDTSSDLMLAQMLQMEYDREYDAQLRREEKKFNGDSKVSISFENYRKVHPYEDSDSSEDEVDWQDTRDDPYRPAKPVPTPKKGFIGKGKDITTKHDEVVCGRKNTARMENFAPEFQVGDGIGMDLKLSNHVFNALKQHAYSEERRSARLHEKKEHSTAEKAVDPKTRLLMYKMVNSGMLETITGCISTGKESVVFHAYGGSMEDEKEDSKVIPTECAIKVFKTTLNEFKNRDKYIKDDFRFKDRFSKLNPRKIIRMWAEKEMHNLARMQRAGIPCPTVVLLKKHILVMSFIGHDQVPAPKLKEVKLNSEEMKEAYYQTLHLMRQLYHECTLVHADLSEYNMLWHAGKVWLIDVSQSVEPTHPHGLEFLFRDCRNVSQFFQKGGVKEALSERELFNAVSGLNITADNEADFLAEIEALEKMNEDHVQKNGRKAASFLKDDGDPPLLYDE

SRPK1 (human) = SRPK1 (human) (UniProt Q96SB4)
BRSK1 (human) = BRSK1 (human) (UniProt Q8TDC3)
MAPK9 (human) = MAPK9 (human) (UniProt P45984)
CDK15 (human) = CDK15 (human) (UniProt Q96Q40)
PDGFRB (human) = PDGFRB (human) (UniProt P09619)
EPHB2 (human) = EPHB2 (human) (UniProt P29323)
[2] = biological target: JAK1 JH1 catalytic (human) (UniProt P23458)

Chain of MAPK4 (human) (P31152 whole entry, looked up): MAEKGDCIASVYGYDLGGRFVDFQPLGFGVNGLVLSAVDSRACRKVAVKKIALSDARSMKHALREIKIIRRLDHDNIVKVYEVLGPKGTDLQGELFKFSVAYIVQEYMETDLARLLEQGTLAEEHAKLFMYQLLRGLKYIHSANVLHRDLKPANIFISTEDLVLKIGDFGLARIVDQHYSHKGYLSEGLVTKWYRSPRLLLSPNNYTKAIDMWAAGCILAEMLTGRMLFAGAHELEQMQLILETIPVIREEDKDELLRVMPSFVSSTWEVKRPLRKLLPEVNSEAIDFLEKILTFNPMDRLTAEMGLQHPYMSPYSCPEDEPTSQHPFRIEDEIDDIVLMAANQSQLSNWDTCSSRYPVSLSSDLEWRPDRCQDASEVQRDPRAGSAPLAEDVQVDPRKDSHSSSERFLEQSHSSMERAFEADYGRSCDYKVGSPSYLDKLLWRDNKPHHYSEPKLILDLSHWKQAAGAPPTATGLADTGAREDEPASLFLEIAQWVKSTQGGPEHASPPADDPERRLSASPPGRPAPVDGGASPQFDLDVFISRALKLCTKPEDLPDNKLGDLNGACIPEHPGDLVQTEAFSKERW
Chain of PLK1 (human) (P53350 whole entry, looked up): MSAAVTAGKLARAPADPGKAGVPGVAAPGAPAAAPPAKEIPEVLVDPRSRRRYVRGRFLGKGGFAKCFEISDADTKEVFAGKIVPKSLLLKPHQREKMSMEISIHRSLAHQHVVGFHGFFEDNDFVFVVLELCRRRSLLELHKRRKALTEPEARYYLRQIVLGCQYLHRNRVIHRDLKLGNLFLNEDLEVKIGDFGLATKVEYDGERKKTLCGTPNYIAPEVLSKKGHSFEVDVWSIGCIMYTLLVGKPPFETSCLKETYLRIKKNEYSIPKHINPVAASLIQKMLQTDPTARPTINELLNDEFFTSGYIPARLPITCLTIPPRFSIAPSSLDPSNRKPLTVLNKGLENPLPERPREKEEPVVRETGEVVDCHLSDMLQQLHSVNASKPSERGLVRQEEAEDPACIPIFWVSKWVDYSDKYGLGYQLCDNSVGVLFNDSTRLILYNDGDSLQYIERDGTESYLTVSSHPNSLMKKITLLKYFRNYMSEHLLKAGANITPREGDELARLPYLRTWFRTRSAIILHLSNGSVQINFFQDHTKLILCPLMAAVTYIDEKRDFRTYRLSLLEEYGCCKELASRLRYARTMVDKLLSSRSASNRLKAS

SMILES	kinase still bound, per cent of control (RPS6KA2 KD1 (human)) [%]	kinase still bound, per cent of control (CAMK2A (human)) [%]	kinase still bound, per cent of control (MAPK4 (human)) [%]	kinase still bound, per cent of control (MAP3K11 (human)) [%]	kinase still bound, per cent of control (MAP2K2 (human)) [%]	kinase still bound, per cent of control (PLK1 (human)) [%]	kinase still bound, per cent of control (STK11 (human)) [%]	kinase still bound, per cent of control (MAPKAPK2 (human)) [%]	kinase still bound, per cent of control (PRKD2 (human)) [%]	kinase still bound, per cent of control (CSNK1G1 (human)) [%]	kinase still bound, per cent of control (DCLK2 (human)) [%]	kinase still bound, per cent of control (MKNK1 (human)) [%]	kinase still bound, per cent of control (FYN (human)) [%]	kinase still bound, per cent of control (CHUK (human)) [%]	kinase still bound, per cent of control (TNK2 (human)) [%]	kinase still bound, per cent of control (STK17A (human)) [%]	kinase still bound, per cent of control (MAP3K10 (human)) [%]	kinase still bound, per cent of control (MYLK2 (human)) [%]	kinase still bound, per cent of control (RPS6KA1 KD2 (human)) [%]	kinase still bound, per cent of control [1] [%]	other results
Cc1ccc(C(=O)Nc2cccc(C(F)(F)F)c2)cc1Nc1cncc(C(N)=O)c1	100	100	100	100	100	100	100	100	100	100	100	100	100	100	100	100	100	100	100	100	kinase still bound, per cent of control (CDC42BPG (human)): 100%; kinase still bound, per cent of control (PRKACA (human)): 100%; kinase still bound, per cent of control (CDK18 (human)): 100%; kinase still bound, per cent of control (NTRK2 (human)): 32%; kinase still bound, per cent of control (WEE1 (human)): 100%; kinase still bound, per cent of control (CDK7 (human)): 100%; kinase still bound, per cent of control (STK33 (human)): 100%; kinase still bound, per cent of control (ACVRL1 (human)): 100%; kinase still bound, per cent of control (SGK110 (human)): 100%; kinase still bound, per cent of control (TAOK3 (human)): 100%; kinase still bound, per cent of control (IKBKB (human)): 100%; kinase still bound, per cent of control (TTK (human)): 100%; kinase still bound, per cent of control (RIOK3 (human)): 100%; kinase still bound, per cent of control (SRPK1 (human)): 100%; kinase still bound, per cent of control (BRSK1 (human)): 100%; kinase still bound, per cent of control (MAPK9 (human)): 100%; kinase still bound, per cent of control (CDK15 (human)): 100%; kinase still bound, per cent of control (PDGFRB (human)): 0.05%; kinase still bound, per cent of control (EPHB2 (human)): 1.6%; kinase still bound, per cent of control [2]: 100%
CCCS(=O)(=O)Nc1ccc(F)c(C(=O)c2c[nH]c3ncc(-c4ccc(Cl)cc4)cc23)c1F	39	100	100	81	5.4	100	75	100	95	100	100	70	9.1	87	6.9	62	73	18	59	47	kinase still bound, per cent of control (CDC42BPG (human)): 34%; kinase still bound, per cent of control (PRKACA (human)): 100%; kinase still bound, per cent of control (CDK18 (human)): 100%; kinase still bound, per cent of control (NTRK2 (human)): 78%; kinase still bound, per cent of control (WEE1 (human)): 100%; kinase still bound, per cent of control (CDK7 (human)): 82%; kinase still bound, per cent of control (STK33 (human)): 94%; kinase still bound, per cent of control (ACVRL1 (human)): 65%; kinase still bound, per cent of control (SGK110 (human)): 100%; kinase still bound, per cent of control (TAOK3 (human)): 74%; kinase still bound, per cent of control (IKBKB (human)): 100%; kinase still bound, per cent of control (TTK (human)): 57%; kinase still bound, per cent of control (RIOK3 (human)): 100%; kinase still bound, per cent of control (SRPK1 (human)): 92%; kinase still bound, per cent of control (BRSK1 (human)): 100%; kinase still bound, per cent of control (MAPK9 (human)): 50%; kinase still bound, per cent of control (CDK15 (human)): 96%; kinase still bound, per cent of control (PDGFRB (human)): 0.15%; kinase still bound, per cent of control (EPHB2 (human)): 99%; kinase still bound, per cent of control [2]: 28%
